Assay results published in PMC4770093, “The role of kinetic context in apparent biased agonism at GPCRs” (Nature Communications, 2016).
Several values for one entry are separate records, joined by “and”; a condition that tells them apart may be missing. Identical values can stand only once.

What was measured:
D2LR [1] = target: T1, D2LR (Homo sapiens, UniProt P14416); assay: β-Arrestin-2 recruitment (BRET); type: cell-based; set-up: expressed in transfected cells; conditions: 5 minute timepoint
T1 sequence (P14416 whole entry): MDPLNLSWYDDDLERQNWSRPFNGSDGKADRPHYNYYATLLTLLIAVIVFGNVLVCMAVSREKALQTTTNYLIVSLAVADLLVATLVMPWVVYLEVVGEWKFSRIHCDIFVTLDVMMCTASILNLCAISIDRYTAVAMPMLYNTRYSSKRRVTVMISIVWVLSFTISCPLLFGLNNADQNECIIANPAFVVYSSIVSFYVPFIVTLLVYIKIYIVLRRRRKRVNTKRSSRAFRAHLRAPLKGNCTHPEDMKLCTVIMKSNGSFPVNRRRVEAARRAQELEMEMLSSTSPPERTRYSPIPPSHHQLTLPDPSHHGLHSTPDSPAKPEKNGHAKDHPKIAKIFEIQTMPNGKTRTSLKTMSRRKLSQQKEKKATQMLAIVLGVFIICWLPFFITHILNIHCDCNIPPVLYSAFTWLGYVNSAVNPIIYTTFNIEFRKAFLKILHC
Method: β-Arrestin-2 recruitment. […] To assess β-arrestin-2 recruitment to the D2LR, the cells were transfected with 1 μg Rluc8-tagged D2LR, 4 μg YFP–β-arrestin-2 and 2 μg GRK2. […] The cells were incubated with Coelenterazine (Promega) at a final concentration of 5 μM for 5 min, followed by stimulation with the agonists for an additional 5 min before the BRET readings were captured.

D2LR [2] = target: T1, D2LR; assay: Inhibition of forskolin-induced cAMP production (BRET CAMYEL biosensor); conditions: for EC50: pEC50 cAMP; for Emax: relative to the maximal response of ropinirole; for Inhibition of cAMP production measured using a CAMYEL BRET biosensor, Net BRET: single experiments n = 1, 2, 3
D2LR [3] = target: T1, D2LR; assay: GαoB G protein activation (BRET); type: cell-based; set-up: expressed in transfected cells; conditions: for Emax: relative to the maximal response of ropinirole;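 as to all read-outs here: Flp-In-CHO cells stably expressing D2LR, transiently transfected, agonist-stimulated in HBSS at 37 °C, net BRET read after coelenterazine, vehicle control subtracted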
Method: G protein activation. Flp-In-CHO cells stably expressing the D2LR were seeded at a density of 2,000,000 cells per 10-cm dish and were transfected the following day using polyethylenimine as the transfection reagent. […] Twenty-four hours after transfection, the cells were plated into 96-well CulturPlates (PerkinElmer) and grown overnight. The cells were equilibrated in Hank's balanced salt solution at 37 °C before starting the experiment. The cells were stimulated with the agonists for the indicated timeframes when the BRET readings were captured. Coelenterazine (Promega) was added at a final concentration of 5 μM at least 3 min before measurement. […] Net BRET was determined by subtraction of the vehicle control from the agonist-induced response.

[4] = target: SNAP-tagged human dopamine D2L (Homo sapiens, UniProt P14416); assay: Tag-lite PPHT-red competition kinetic binding (HTRF); conditions: PPHT-red tracer, Tag-lite
Chain of SNAP-tagged human dopamine D2L (P14416 whole entry): as above
Method: To terbium label the SNAP-CHO-D2L cells, cell culture medium was removed from the T175 cm^2 flasks containing confluent adherent SNAP-CHO-D2L cells. Twelve millilitres of Tag-lite labelling medium containing 100 nM of SNAP-Lumi4-Tb was added to the flask and incubated for 1 h at 37 °C under 5% CO2. Cells were then washed 2 × in 15 ml PBS (GIBCO, Invitrogen, Paisley, UK) to remove the excess of SNAP-Lumi4-Tb and detached using 5 ml of enzyme-free Hank's-based cell dissociation buffer (GIBCO, Invitrogen, Paisley, UK) and collected in a vial containing 5 ml of DMEM/Nutrient F-12 Ham, 2 mM glutamine supplemented 10% FCS. Cells were pelleted by centrifugation (5 min at 1,500 r.p.m.) and the pellets were frozen to −80 °C before preparation of membranes.
All subsequent steps described were conducted at 4 °C, to avoid receptor degradation. Twenty millilitres of wash buffer (10 mM HEPES and 10 mM EDTA pH 7.4) was added to the pellet of terbium-labelled cells (equivalent to 1 × t175 cm^2). […] The supernatant was discarded and the pellet was homogenized and centrifuged as described above in wash buffer. The final pellet was suspended in ice-cold 10 mM HEPES and 0.1 mM EDTA pH 7.4, at a concentration of 5–10 mg m^−1. Protein concentration was determined by the bicinchoninic acid assay using BSA as a standard and aliquots maintained at −80 °C until required. Before their use, the frozen membranes were thawed and the membranes suspended in the assay buffer at a membrane concentration of 0.1 mg m^−1.
GppNHp was included to remove the G protein-coupled population of receptors that can result in two binding sites in membrane preparations, because the Motulsky–Mahan model is only appropriate for ligands competing at a single site. […] Both fluorescent ligands and unlabelled compounds were diluted in the binding assay buffer.
Kinetics acquisitions at intervals of 20 s were recorded using the standard settings of the reader for HTRF measurements. […] Specific binding was determined by subtracting the nonspecific HTRF ratio from the total HTRF ratio.
To accurately determine association rate (kon) and dissociation rate (koff) values, the observed rate of association (kob) was calculated using at least four different concentrations of PPHT-red. The appropriate concentration of PPHT-red was incubated in a 384-well Optiplate with human SNAP-D2LR-CHO cell membranes (2 μg per well) in assay binding buffer at 37 °C (final assay volume, 40 μl). The degree of PPHT-red bound to the receptor was assessed at multiple time points by HTRF detection, to allow construction of association kinetic curves. The resulting data were globally fitted to the association kinetic model (equation (8)) to derive a single best-fit estimate for kon and koff as described under ‘Data analysis'.
On the same 384-well Optiplate plate, the kinetic parameters of unlabelled ligand were assessed using a competition kinetic binding assay. This approach involves the simultaneous addition of both fluorescent ligand and competitor to receptor preparation so that at t=0 all receptors are unoccupied. […] The degree of PPHT-red bound to the receptor was assessed at multiple time points by HTRF detection. Nonspecific binding was determined as the amount of HTRF signal detected in the presence of spiperone (1 μM) and was subtracted from each time point. Each time point was conducted on the same 384-well plate incubated at 37 °C with shaking (100 r.p.m.) after every cycle.
Data were globally fitted using equation (7), to simultaneously calculate kon and koff.

[5] = 5 minute timepoint, Flp-In-CHO-D2LR
[6] = 5 minute timepoint, dopamine as reference agonist

O=c1[nH]c2cccc(N3CCN(Cc4cccc(-c5ccccc5)c4)CC3)c2o1 [Bifeprunox, bifeprunox]
Log(τ/KA) β-arrestin2 (D2LR [1]; ND = no agonist activity detected): 5.75 ± 0.16 | ΔLog(τ/KA) β-arrestin2 (D2LR [1]; dopamine as reference agonist): -0.58 ± 0.21 | Log(τ/KA) cAMP (D2LR [2]; [5]): 7.88 ± 0.05 | ΔLog(τ/KA) cAMP (D2LR [2]; [6]): -0.18 ± 0.07 | EC50 (D2LR [2]; 2 min): 25.1 nM | EC50 (D2LR [2]; 5 min): 12.3 nM | EC50 (D2LR [2]; 10 min): 7.41 nM | EC50 (D2LR [2]; 15 min): 5.37 nM | EC50 (D2LR [2]; 30 min): 2.4 nM | EC50 (D2LR [2]; 45 min): 2.75 nM | EC50 (D2LR [2]; 60 min): 3.09 nM | EC50 (D2LR [2]; 75 min): 1.58 nM | EC50 (D2LR [2]; 90 min): 2.04 nM | Emax (D2LR [2]; read-out: Emax cAMP, 2 min): 89 ± 2% | Emax (D2LR [2]; read-out: Emax cAMP, 5 min): 92 ± 2% | Emax (D2LR [2]; read-out: Emax cAMP, 10 min): 91 ± 2% | Emax (D2LR [2]; read-out: Emax cAMP, 15 min): 89 ± 2.4% | Emax (D2LR [2]; read-out: Emax cAMP, 30 min): 89 ± 1.7% | Emax (D2LR [2]; read-out: Emax cAMP, 45 min): 88 ± 2% | Emax (D2LR [2]; read-out: Emax cAMP, 60 min): 81 ± 2% | Emax (D2LR [2]; read-out: Emax cAMP, 75 min): 90 ± 2.5% | Emax (D2LR [2]; read-out: Emax cAMP, 90 min): 88 ± 2.5% | Inhibition of cAMP production measured using a CAMYEL BRET biosensor, Net BRET (D2LR [2]; time 2.21667 mins): 0.08914 and 0.1211 and 0.09318 | Inhibition of cAMP production measured using a CAMYEL BRET biosensor, Net BRET (D2LR [2]; time 2.58333 mins): 0.103 and 0.1317 and 0.09421 | Inhibition of cAMP production measured using a CAMYEL BRET biosensor, Net BRET (D2LR [2]; time 2.95 mins): 0.1113 and 0.1351 and 0.0964 | Inhibition of cAMP production measured using a CAMYEL BRET biosensor, Net BRET (D2LR [2]; time 3.31667 mins): 0.1109 and 0.1416 and 0.1166 | Inhibition of cAMP production measured using a CAMYEL BRET biosensor, Net BRET (D2LR [2]; time 3.68333 mins): 0.1141 and 0.143 and 0.1124 | Inhibition of cAMP production measured using a CAMYEL BRET biosensor, Net BRET (D2LR [2]; time 4.05 mins): 0.1231 and 0.1563 and 0.1162 | Inhibition of cAMP production measured using a CAMYEL BRET biosensor, Net BRET (D2LR [2]; time 4.41667 mins): 0.1255 and 0.1611 and 0.116 | Inhibition of cAMP production measured using a CAMYEL BRET biosensor, Net BRET (D2LR [2]; time 4.78333 mins): 0.1306 and 0.1617 and 0.1229 | Inhibition of cAMP production measured using a CAMYEL BRET biosensor, Net BRET (D2LR [2]; time 5.15 mins): 0.1492 and 0.1604 and 0.1179 | Inhibition of cAMP production measured using a CAMYEL BRET biosensor, Net BRET (D2LR [2]; time 5.51667 mins): 0.135 and 0.1611 and 0.1193 | Inhibition of cAMP production measured using a CAMYEL BRET biosensor, Net BRET (D2LR [2]; time 5.88333 mins): 0.1401 and 0.1595 and 0.123 | Inhibition of cAMP production measured using a CAMYEL BRET biosensor, Net BRET (D2LR [2]; time 6.25 mins): 0.1298 and 0.1539 and 0.1222 | Inhibition of cAMP production measured using a CAMYEL BRET biosensor, Net BRET (D2LR [2]; time 6.61667 mins): 0.1365 and 0.1594 and 0.1215 | Inhibition of cAMP production measured using a CAMYEL BRET biosensor, Net BRET (D2LR [2]; time 6.98333 mins): 0.1365 and 0.1586 and 0.1225 | Inhibition of cAMP production measured using a CAMYEL BRET biosensor, Net BRET (D2LR [2]; time 7.35 mins): 0.1382 and 0.1575 and 0.1195 | Inhibition of cAMP production measured using a CAMYEL BRET biosensor, Net BRET (D2LR [2]; time 7.71667 mins): 0.1358 and 0.1585 and 0.1189 | Inhibition of cAMP production measured using a CAMYEL BRET biosensor, Net BRET (D2LR [2]; time 8.08333 mins): 0.1415 and 0.1636 and 0.1191 | Inhibition of cAMP production measured using a CAMYEL BRET biosensor, Net BRET (D2LR [2]; time 8.45 mins): 0.1387 and 0.16 and 0.1143 | Inhibition of cAMP production measured using a CAMYEL BRET biosensor, Net BRET (D2LR [2]; time 8.81667 mins): 0.1483 and 0.1622 and 0.1213 | Inhibition of cAMP production measured using a CAMYEL BRET biosensor, Net BRET (D2LR [2]; time 9.18333 mins): 0.1415 and 0.1645 and 0.1136 | Inhibition of cAMP production measured using a CAMYEL BRET biosensor, Net BRET (D2LR [2]; time 9.55 mins): 0.1361 and 0.1571 and 0.122 | Inhibition of cAMP production measured using a CAMYEL BRET biosensor, Net BRET (D2LR [2]; time 9.91667 mins): 0.1368 and 0.1537 and 0.1212 | Inhibition of cAMP production measured using a CAMYEL BRET biosensor, Net BRET (D2LR [2]; time 10.2833 mins): 0.1433 and 0.1558 and 0.1185 | Inhibition of cAMP production measured using a CAMYEL BRET biosensor, Net BRET (D2LR [2]; time 10.65 mins): 0.1418 and 0.1582 and 0.1222 | Inhibition of cAMP production measured using a CAMYEL BRET biosensor, Net BRET (D2LR [2]; time 11.0167 mins): 0.1356 and 0.1444 and 0.1266 | Inhibition of cAMP production measured using a CAMYEL BRET biosensor, Net BRET (D2LR [2]; time 11.3833 mins): 0.1394 and 0.145 and 0.1251 | Inhibition of cAMP production measured using a CAMYEL BRET biosensor, Net BRET (D2LR [2]; time 11.75 mins): 0.1471 and 0.1529 and 0.1151 | Inhibition of cAMP production measured using a CAMYEL BRET biosensor, Net BRET (D2LR [2]; time 12.1167 mins): 0.148 and 0.1471 and 0.1222 | Inhibition of cAMP production measured using a CAMYEL BRET biosensor, Net BRET (D2LR [2]; time 12.4833 mins): 0.1456 and 0.1415 and 0.132 | Inhibition of cAMP production measured using a CAMYEL BRET biosensor, Net BRET (D2LR [2]; time 12.85 mins): 0.1323 and 0.1432 and 0.12 | Inhibition of cAMP production measured using a CAMYEL BRET biosensor, Net BRET (D2LR [2]; time 13.2167 mins): 0.14 and 0.1381 and 0.1276 | Inhibition of cAMP production measured using a CAMYEL BRET biosensor, Net BRET (D2LR [2]; time 13.5833 mins): 0.1427 and 0.1424 and 0.1286 | Inhibition of cAMP production measured using a CAMYEL BRET biosensor, Net BRET (D2LR [2]; time 13.95 mins): 0.1347 and 0.1377 and 0.1287 | Inhibition of cAMP production measured using a CAMYEL BRET biosensor, Net BRET (D2LR [2]; time 14.3167 mins): 0.1428 | EC50 (D2LR [3]; 2 min): 52.5 nM | Emax (D2LR [3]; 2 min): 94 ± 3.8% | EC50 (D2LR [3]; 5 min): 26.9 nM | Emax (D2LR [3]; 5 min): 80% | Log(τ/KA) GαoB activation (D2LR [3]; [5]): 7.50 ± 0.10 | ΔLog(τ/KA) GαoB activation (D2LR [3]; [6]): 0.26 ± 0.13 | EC50 (D2LR [3]; 10 min): 12.9 nM | Emax (D2LR [3]; 10 min): 77% | EC50 (D2LR [3]; 15 min): 7.59 nM | Emax (D2LR [3]; 15 min): 79% | EC50 (D2LR [3]; 30 min): 4.07 nM | Emax (D2LR [3]; 30 min): 87 ± 2.5% | EC50 (D2LR [3]; 45 min): 3.02 nM | Emax (D2LR [3]; 45 min): 88 ± 2.4% | EC50 (D2LR [3]; 60 min): 3.24 nM | EC50 (D2LR [3]; 75 min): 2.19 nM | EC50 (D2LR [3]; 90 min): 2.14 nM | Emax (D2LR [3]; 90 min): 90 ± 3.2% | koff ([4]; 100 μM GppNHp, 37 °C, read-out: koff (converted)): 0.000167 s⁻¹ | Kd ([4]; read-out: pKd (affinity determined from kinetic parameters) (converted)): 0.0501 nM
